Source: paper PMC7927808 (Antimicrobial Agents and Chemotherapy, 2020)

What was measured:
[1] = system: S. aureus N315 pRB474-lugIEFGH; test: MIC determination, broth microdilution in BM; assay type: cell-based, Staphylococcus aureus; settings: for Effect of constitutive LugIEFGH expression on S. aureus susceptibility (in words): S. aureus pRB474-lugIEFGH compared with S. aureus pRB474 (Fig. 4); for MIC S. aureus pRB474-lugIEFGH: Table S2, mean MIC in BM-medium, 37°C, 24 h, 75% growth reduction, at least three independent experiments; for Ratio of MICs, S. aureus pRB474-lugIEFGH versus S. aureus pRB474: Table S2 / Fig. 4b, BM-medium
Description: (§1) Further strains used for MIC determination were S. aureus N315 with plasmids pRB474, pRB474-lugI, pRB474-lugEF, pRB474-lugIEF, pRB474-lugGH, pRB474-lugIGH, pRB474-lugEFGH, and pRB474-lugIEFGH.
(§2) If necessary, antibiotic was used at a concentration of 10 μg ml^−1 for chloramphenicol.
(§3) Strains used for MIC determinations were grown overnight in BM, with chloramphenicol for plasmid-containing strains, under continuous shaking at 37°C. Each strain was adjusted to OD600 of 0.0625 in BM. The antimicrobial molecule stock solutions were serially diluted in BM in 96-well microtiter plates. Each well with 100 μl medium, and chloramphenicol, if required, was inoculated with 2 μl of the OD600 of 0.0625 bacterial stock solution. The plates were incubated at 37°C for 24 h under continuous shaking (160 rpm). The OD600 of each well was measured with a microplate reader, and the concentration leading to a 75% growth reduction was calculated and defined as the MIC value.

[2] = system: S. aureus N315 pRB474; test: MIC determination, broth microdilution in BM; assay type: cell-based, Staphylococcus aureus; settings: Table S2, mean MIC in BM-medium; empty vector strain; 37°C, 24 h, 75% growth reduction; at least three independent experiments
Description: as §1, §2, §3

2-Ala-lugdunin
Effect of constitutive LugIEFGH expression on S. aureus susceptibility (in words) [1]: no resistance against the 2-Ala congener was conferred
MIC S. aureus pRB474-lugIEFGH [1]: 39.9 µg/mL
Ratio of MICs, S. aureus pRB474-lugIEFGH versus S. aureus pRB474 [1]: 0.99
MIC S. aureus pRB474 [2]: 40.2 µg/mL

6-Trp-lugdunin
Effect of constitutive LugIEFGH expression on S. aureus susceptibility (in words) [1]: Similar, though even less pronounced
MIC S. aureus pRB474-lugIEFGH [1]: 31.1 µg/mL
Ratio of MICs, S. aureus pRB474-lugIEFGH versus S. aureus pRB474 [1]: 1.89
MIC S. aureus pRB474 [2]: 16.4 µg/mL

N#CC(C#N)=NNc1cccc(Cl)c1 [CCCP, carbonyl cyanide m-chlorophenylhydrazone]
Effect of constitutive LugIEFGH expression on S. aureus susceptibility (in words) [1]: did not affect the susceptibility
MIC S. aureus pRB474-lugIEFGH [1]: 0.64 µg/mL
Ratio of MICs, S. aureus pRB474-lugIEFGH versus S. aureus pRB474 [1]: 1.02
MIC S. aureus pRB474 [2]: 0.63 µg/mL

CO[C@@H]1C[C@@H](C[C@H]2CC[C@H](C)[C@H]([C@@H](C)C(=O)O)O2)O[C@]2(O[C@](C)([C@H]3CC[C@@](C)([C@@H]4O[C@@H]([C@H]5O[C@@](O)(CO)[C@H](C)C[C@@H]5C)C[C@@H]4C)O3)C[C@H]2C)[C@@H]1C [nigericin]
Effect of constitutive LugIEFGH expression on S. aureus susceptibility (in words) [1]: did not affect the susceptibility
MIC S. aureus pRB474-lugIEFGH [1]: 0.25 µg/mL
Ratio of MICs, S. aureus pRB474-lugIEFGH versus S. aureus pRB474 [1]: 1.00
MIC S. aureus pRB474 [2]: 0.25 µg/mL

daptomycin
Effect of constitutive LugIEFGH expression on S. aureus susceptibility (in words) [1]: did not affect the susceptibility
MIC S. aureus pRB474-lugIEFGH [1]: 2.17 µg/mL
Ratio of MICs, S. aureus pRB474-lugIEFGH versus S. aureus pRB474 [1]: 1
MIC S. aureus pRB474 [2]: 2.17 µg/mL

enantio-lugdunin
Effect of constitutive LugIEFGH expression on S. aureus susceptibility (in words) [1]: some degree of resistance
MIC S. aureus pRB474-lugIEFGH [1]: 69.8 µg/mL
Ratio of MICs, S. aureus pRB474-lugIEFGH versus S. aureus pRB474 [1]: 2.23
MIC S. aureus pRB474 [2]: 31.3 µg/mL

gramicidin S
Effect of constitutive LugIEFGH expression on S. aureus susceptibility (in words) [1]: did not affect the susceptibility
MIC S. aureus pRB474-lugIEFGH [1]: 2.74 µg/mL
Ratio of MICs, S. aureus pRB474-lugIEFGH versus S. aureus pRB474 [1]: 1.00
MIC S. aureus pRB474 [2]: 2.75 µg/mL
